Values quoted from earlier work in patent US7354746B1, “Method for producing optically active IHOG and monatin” (Ajinomoto Co., Inc., priority 2006, dated 2008).
Like-named read-outs stand apart in the source and are kept apart here.

Conditions: for Sweetness (vs. Sucrose): sweetness intensity relative to sucrose

SMILES | Sweetness rank among the 4 types of monatin isomers (comparison of the 4 monatin isomers) | Sweetness (vs. Sucrose) [times] | Sweetness (vs. Sucrose) (listed as (2R, 4R)-monatin)
N[C@H](CC(O)(Cc1c[nH]c2ccccc12)C(=O)O)C(=O)O (stereo partly drawn) [2R, 4R, (2R, 4R)-monatin] | highest sweetness | 2700 | 2,700 times
N[C@H](C[C@@](O)(Cc1c[nH]c2ccccc12)C(=O)O)C(=O)O [2R, 4S] | – | 1300 | –
N[C@@H](C[C@](O)(Cc1c[nH]c2ccccc12)C(=O)O)C(=O)O [2S, 4R, (2S, 4R)-monatin] | – | 300 | –
NC(CC(O)(Cc1c[nH]c2ccccc12)C(=O)O)C(=O)O [2S, 4S, (2S, 4S)-monatin] | – | 50 | –
